# ChEMBL document CHEMBL1132005, “Structure-activity relationship in two series of aminoalkyl substituted coumarin inhibitors of gyrase B” (1999)
# What was measured:
# [1] = molecular target: DNA gyrase (Escherichia coli) (UniProt P0AES6+P0AES4); test: In vitro inhibition of supercoiling activity of Escherichia coli DNA gyrase as the ratio of IC50 of Novobiocin and IC50 of compound; type: protein-complex assay
# Staphylococcus aureus [2] = test: In vitro antibacterial activity against Staphylococcus aureus 011HT3; type: functional
# Staphylococcus aureus [3] = test: In vitro antibacterial activity against Staphylococcus aureus 011GO76 OfloOxaEry-R; type: functional
# Staphylococcus aureus [4] = test: In vitro antibacterial activity against Staphylococcus aureus 011HT1 Nov-R; type: functional
# Streptococcus pyogenes = test: In vitro antibacterial activity against Streptococcus pyogenes O2A1UC1
# Enterococcus faecium = test: In vitro antibacterial activity against Enterococcus faecium 02D31P2 VanTeiEry-R; type: functional
# [5] = tested on: Staphylococcus epidermidis; test: In vitro antibacterial activity against Staphylococcus epidermidis 012GO39 OxaTei-R; type: functional
Compound,Ratio [1],MIC (Staphylococcus aureus [2]),MIC (Staphylococcus aureus [3]),MIC (Staphylococcus aureus [4]),MIC (Streptococcus pyogenes),MIC (Enterococcus faecium),MIC [5]
CO[C@@H]1[C@@H](OC(=O)c2ccc(C)[nH]2)[C@@H](O)[C@H](Oc2ccc3c(CN4CCNCC4c4ccccc4)cc(=O)oc3c2C)OC1(C)C (some centres undefined),0.17,1.2 µg/mL,5 µg/mL,5 µg/mL,1.2 µg/mL,5 µg/mL,0.6 µg/mL
CO[C@@H]1[C@@H](OC(=O)c2ccc(C)[nH]2)[C@@H](O)[C@H](Oc2ccc3c(OCCN4CCOCC4)cc(=O)oc3c2C)OC1(C)C,0.22,0.3 µg/mL,0.6 µg/mL,10 µg/mL,2.5 µg/mL,20 µg/mL,0.15 µg/mL
CO[C@@H]1[C@@H](OC(=O)c2ccc(C)[nH]2)[C@@H](O)[C@H](Oc2ccc3c(CN4CCNC(c5ccco5)C4)cc(=O)oc3c2C)OC1(C)C (some centres undefined),0.33,0.6 µg/mL,10 µg/mL,10 µg/mL,1.2 µg/mL,10 µg/mL,0.6 µg/mL
CO[C@@H]1[C@@H](OC(=O)c2ccc(C)[nH]2)[C@@H](O)[C@H](Oc2ccc3c(OCCN4CCNC(c5ccccc5)C4)cc(=O)oc3c2C)OC1(C)C (some centres undefined),0.33,0.3 µg/mL,10 µg/mL,5 µg/mL,1.2 µg/mL,5 µg/mL,0.6 µg/mL
CO[C@@H]1[C@@H](OC(=O)c2ccc(C)[nH]2)[C@@H](O)[C@H](Oc2ccc3c(CN4CCNC(c5ccccc5)C4)cc(=O)oc3c2C)OC1(C)C (some centres undefined),0.28,1.2 µg/mL,5 µg/mL,10 µg/mL,2.5 µg/mL,10 µg/mL,1.2 µg/mL
CO[C@@H]1[C@@H](OC(=O)c2ccc(C)[nH]2)[C@@H](O)[C@H](Oc2ccc3c(OCCN4CCN(C)CC4)c(Cl)c(=O)oc3c2C)OC1(C)C,0.33,5 µg/mL,10 µg/mL,> 40 µg/mL,10 µg/mL,> 40 µg/mL,5 µg/mL
CO[C@@H]1[C@@H](OC(N)=O)[C@@H](O)[C@H](Oc2ccc3c(O)c(NC(=O)c4ccc(O)c(CC=C(C)C)c4)c(=O)oc3c2C)OC1(C)C [NOVOBIOCIN],,< 0.04 µg/mL,< 0.04 µg/mL,20 µg/mL,0.15 µg/mL,0.3 µg/mL,0.08 µg/mL
CO[C@@H]1[C@@H](OC(=O)c2ccc(C)[nH]2)[C@@H](O)[C@H](Oc2ccc3c(OCCn4ccnc4)cc(=O)oc3c2C)OC1(C)C,0.22,0.6 µg/mL,1.2 µg/mL,> 20 µg/mL,1.2 µg/mL,10 µg/mL,0.3 µg/mL
CO[C@@H]1[C@@H](OC(=O)c2ccc(C)[nH]2)[C@@H](O)[C@H](Oc2ccc3c(Cn4ccnc4)cc(=O)oc3c2C)OC1(C)C,1,1.2 µg/mL,5 µg/mL,> 40 µg/mL,5 µg/mL,> 40 µg/mL,1.2 µg/mL
CO[C@@H]1[C@@H](OC(=O)c2ccc(C)[nH]2)[C@@H](O)[C@H](Oc2ccc3c(CN)cc(=O)oc3c2C)OC1(C)C,1.8,10 µg/mL,40 µg/mL,> 40 µg/mL,40 µg/mL,> 40 µg/mL,5 µg/mL
CO[C@@H]1[C@@H](OC(=O)c2ccc(C)[nH]2)[C@@H](O)[C@H](Oc2ccc3c(CN4CCC[C@H]4CO)cc(=O)oc3c2C)OC1(C)C,0.3,0.6 µg/mL,1.2 µg/mL,10 µg/mL,2.5 µg/mL,20 µg/mL,1.2 µg/mL
CO[C@@H]1[C@@H](OC(=O)c2ccc(C)[nH]2)[C@@H](O)[C@H](Oc2ccc3c(OCCSc4ncc[nH]4)cc(=O)oc3c2C)OC1(C)C,0.33,0.08 µg/mL,5 µg/mL,2.5 µg/mL,0.6 µg/mL,5 µg/mL,< 0.04 µg/mL
CO[C@@H]1[C@@H](OC(=O)c2ccc(C)[nH]2)[C@@H](O)[C@H](Oc2ccc3c(OCCN4CCOCC4)c(Cl)c(=O)oc3c2C)OC1(C)C,0.17,1.2 µg/mL,2.5 µg/mL,> 40 µg/mL,5 µg/mL,> 40 µg/mL,2.5 µg/mL
CCN1CCN(Cc2cc(=O)oc3c(C)c(O[C@@H]4OC(C)(C)[C@H](OC)[C@@H](OC(=O)c5ccc(C)[nH]5)[C@H]4O)ccc23)CC1,1,5 µg/mL,10 µg/mL,> 40 µg/mL,20 µg/mL,> 40 µg/mL,2.5 µg/mL
CO[C@@H]1[C@@H](OC(=O)c2ccc(C)[nH]2)[C@@H](O)[C@H](Oc2ccc3c(CN4CCC(O)CC4)cc(=O)oc3c2C)OC1(C)C,0.22,0.6 µg/mL,1.2 µg/mL,20 µg/mL,2.5 µg/mL,20 µg/mL,0.6 µg/mL
CO[C@@H]1[C@@H](OC(=O)c2ccc(C)[nH]2)[C@@H](O)[C@H](Oc2ccc3c(OCCN4CCC[C@H]4CO)cc(=O)oc3c2C)OC1(C)C,0.66,0.6 µg/mL,,40 µg/mL,5 µg/mL,20 µg/mL,2.5 µg/mL
CO[C@@H]1[C@@H](OC(=O)c2ccc(C)[nH]2)[C@@H](O)[C@H](Oc2ccc3c(CSc4nc[nH]n4)cc(=O)oc3c2C)OC1(C)C,0.4,0.3 µg/mL,0.6 µg/mL,10 µg/mL,0.6 µg/mL,2.5 µg/mL,0.3 µg/mL
CO[C@@H]1[C@@H](OC(=O)c2ccc(C)[nH]2)[C@@H](O)[C@H](Oc2ccc3c(OCCn4cnc(-c5cccnc5)c4)cc(=O)oc3c2C)OC1(C)C,0.63,0.6 µg/mL,> 40 µg/mL,> 40 µg/mL,1.2 µg/mL,> 40 µg/mL,0.08 µg/mL
CO[C@@H]1[C@@H](OC(=O)c2ccc(C)[nH]2)[C@@H](O)[C@H](Oc2ccc3c(Cn4cncn4)cc(=O)oc3c2C)OC1(C)C,0.4,1.2 µg/mL,2.5 µg/mL,40 µg/mL,2.5 µg/mL,40 µg/mL,0.6 µg/mL
CO[C@@H]1[C@@H](OC(=O)c2ccc(C)[nH]2)[C@@H](O)[C@H](Oc2ccc3c(OCCN)cc(=O)oc3c2C)OC1(C)C,0.81,2.5 µg/mL,5 µg/mL,20 µg/mL,5 µg/mL,20 µg/mL,1.2 µg/mL
CO[C@@H]1[C@@H](OC(=O)c2ccc(C)[nH]2)[C@@H](O)[C@H](Oc2ccc3c(CN4CCN(C)CC4)cc(=O)oc3c2C)OC1(C)C,0.46,5 µg/mL,5 µg/mL,40 µg/mL,10 µg/mL,> 40 µg/mL,2.5 µg/mL
CNCCOc1cc(=O)oc2c(C)c(O[C@@H]3OC(C)(C)[C@H](OC)[C@@H](OC(=O)c4ccc(C)[nH]4)[C@H]3O)ccc12,2.3,2.5 µg/mL,2.5 µg/mL,20 µg/mL,5 µg/mL,> 40 µg/mL,1.2 µg/mL
CO[C@@H]1[C@@H](OC(=O)c2ccc(C)[nH]2)[C@@H](O)[C@H](Oc2ccc3c(OCCN(C)C)cc(=O)oc3c2C)OC1(C)C,0.57,2.5 µg/mL,5 µg/mL,40 µg/mL,10 µg/mL,> 40 µg/mL,2.5 µg/mL
CO[C@@H]1[C@@H](OC(=O)c2ccc(C)[nH]2)[C@@H](O)[C@H](Oc2ccc3c(O)c(NC(=O)c4ccc(O)c(CC=C(C)C)c4)c(=O)oc3c2Cl)OC1(C)C [CHLOROBIOCIN],,< 0.04 µg/mL,< 0.04 µg/mL,0.15 µg/mL,< 0.04 µg/mL,,< 0.04 µg/mL
